One data set addresses T1, Human CCR3 (Homo sapiens, UniProt P51677).
T1 construct: The cloned CCR3 cDNA was constructed with pcDNA3 vector and transfected into a IC562 cell line; expressed in transfected cells
T1 sequence (P51677 1-355): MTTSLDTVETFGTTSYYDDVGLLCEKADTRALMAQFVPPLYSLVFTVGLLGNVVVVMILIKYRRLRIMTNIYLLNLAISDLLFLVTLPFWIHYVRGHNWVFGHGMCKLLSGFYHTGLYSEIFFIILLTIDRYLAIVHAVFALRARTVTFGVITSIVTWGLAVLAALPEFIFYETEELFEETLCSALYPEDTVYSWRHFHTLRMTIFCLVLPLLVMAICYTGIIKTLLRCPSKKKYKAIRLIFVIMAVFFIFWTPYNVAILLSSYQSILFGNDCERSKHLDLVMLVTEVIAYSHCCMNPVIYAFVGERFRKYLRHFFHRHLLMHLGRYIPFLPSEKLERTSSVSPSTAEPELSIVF
As to the kind of experiment: Calcium mobilization assay, eotaxin-stimulated. The class given is cell-based. As to conditions: human CCR3-transformed K562 cells, 10 nM eotaxin; compounds of about 40 to 90% purity; read-out: Activity grade Ca2+ (IC50 class). An outline of the steps:
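K562 cells transfected with human CCR3, pretreated 20–24 h with 5 mM sodium butyrate, loaded with Fluo-3AM. Compound added 10 min before stimulation with 10 nM (final) eotaxin; cytoplasmic calcium read over 60 s by FDSS, IC50 from inhibition curve.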

For 21 compounds, IC50 and melting point results are on record in US8242118B2, “Arylsulfonamide derivatives for use as CCR3 antagonists in the treatment of inflammatory and immunological disorders” (Axikin Pharmaceuticals Inc., priority 2001, dated 2012).

For orientation: IC50 means the concentration that gives 50% inhibition. In general, melting point refers to the temperature, or range, at which the solid turns liquid. `Cl.O=[N+]([O-])c1ccc(Sc2cc(Cl)cc(Cl)c2)c(S(=O)(=O)NCC2CCNCC2)c1` [Example 2-8] yielded a melting point of 205 to 207 °C. Moreover, the IC50 at Human CCR3 is less than 1000 nM.

The compound `COCCCN1CCN(S(=O)(=O)c2cc([N+](=O)[O-])ccc2Sc2cc(Cl)cc(Cl)c2)CC1` [Example 2-9] showed a melting point of 131 to 133 °C. Besides, the IC50 at Human CCR3 is less than 1000 nM.

`O=C(O)CCN1CCN(S(=O)(=O)c2cc([N+](=O)[O-])ccc2Sc2cc(Cl)cc(Cl)c2)CC1` [Example 2-10] came in with a melting point of 209 to 211 °C. The IC50 on Human CCR3 was less than 1000 nM.

For `Cc1cc(C)c(Sc2ccc([N+](=O)[O-])cc2S(=O)(=O)N2CCNCC2)c(C)c1.Cl` [Example 2-15], the melting point is 274 °C. The IC50 on Human CCR3 lay within 1000 to 10000 nM.

Consider `Cc1cccc(Sc2ccc([N+](=O)[O-])cc2S(=O)(=O)N2CCNCC2)c1.Cl` [Example 2-16], for which the melting point fell in the range of 229 to 231 °C. For the same compound, the IC50 on Human CCR3 is less than 1000 nM.

`Cl.O=[N+]([O-])c1ccc(Sc2cccc(Cl)c2)c(S(=O)(=O)N2CCNCC2)c1` [Example 2-17] gave a melting point of 235 to 237 °C. For the same compound, on Human CCR3, the IC50 is less than 1000 nM.

`Cl.O=[N+]([O-])c1ccc(Sc2cc(Cl)cc(Cl)c2)c(S(=O)(=O)N2CCNCC2)c1` [Example 2-18] displayed a melting point of 262 to 264 °C. In addition, at Human CCR3, the IC50 is less than 1000 nM.

Consider `Cl.O=[N+]([O-])c1ccc(Sc2cccc(F)c2)c(S(=O)(=O)N2CCNCC2)c1` [Example 2-19], for which the melting point fell in the range of 236 to 238 °C. The IC50 at Human CCR3 is less than 1000 nM.

On to `Cl.O=[N+]([O-])c1ccc(Sc2cc(C(F)(F)F)cc(C(F)(F)F)c2)c(S(=O)(=O)N2CCNCC2)c1` [Example 2-20], for which the melting point lay in the range of 230 to 231 °C. Also, at Human CCR3, the IC50 was less than 1000 nM.

As for `Cl.O=[N+]([O-])c1ccc(Sc2ccc3ccccc3c2)c(S(=O)(=O)N2CCNCC2)c1` [Example 2-21], the melting point was 273 °C. For the same compound, on Human CCR3, the IC50 lay in the range of 1000 to 10000 nM.

As to `Cc1cc(C)cc(Sc2ccc([N+](=O)[O-])cc2S(=O)(=O)N2CCN(CC3CCCO3)CC2)c1` (stereo not drawn) [Example 4-28], the melting point was 143 to 144 °C. For the same compound, the half-inhibitory concentration (IC50) on Human CCR3 is less than 1000 nM.

Turning to `CCN(CC)CCN1CCN(S(=O)(=O)c2cc([N+](=O)[O-])ccc2Oc2cc(Cl)cc(Cl)c2)CC1` [Example 4-30], the melting point was 98 to 99 °C. Besides, the IC50 at Human CCR3 is less than 1000 nM.

With `CN(C)CCN1CCN(S(=O)(=O)c2cc([N+](=O)[O-])ccc2Oc2cc(Cl)cc(Cl)c2)CC1` [Example 4-31], the melting point fell in the range of 138 to 140 °C. In addition, at Human CCR3, the half-inhibitory concentration (IC50) was less than 1000 nM.

Regarding `CN1CCC(N2CCN(S(=O)(=O)c3cc([N+](=O)[O-])ccc3Oc3cc(Cl)cc(Cl)c3)CC2)CC1` [Example 4-32], the melting point was 167 to 169 °C. Also, the IC50 on Human CCR3 is less than 1000 nM.

As for `CN(C)CC(C)(C)CNS(=O)(=O)c1cc([N+](=O)[O-])ccc1Oc1cc(Cl)cc(Cl)c1` [Example 4-35], the melting point is 134 °C. Besides, the IC50 on Human CCR3 is less than 1000 nM.

In the case of `CCOC(=O)CCN1CCN(S(=O)(=O)c2cc([N+](=O)[O-])ccc2Oc2cc(Cl)cc(Cl)c2)CC1` [Example 4-37], the melting point lay in the range of 160 to 162 °C. Besides, on Human CCR3, the IC50 was less than 1000 nM.

`Cc1cc(C)cc(Oc2cc(C)c(Cl)cc2S(=O)(=O)N2CCNCC2)c1.Cl` [Example 5-8]: the melting point worked out at 148 °C. The IC50 at Human CCR3 is less than 1000 nM.

`N#Cc1ccc(Oc2cc(Cl)cc(Cl)c2)c(S(=O)(=O)N2CCC[C@H]2CN2CCCC2)c1` [Example 13-3] gave a melting point of 144 to 145 °C. Moreover, at Human CCR3, the IC50 is less than 1000 nM.

`CN(c1cccnc1)S(=O)(=O)c1cc(C#N)ccc1Oc1cc(Cl)cc(Cl)c1.Cl` [Example 13-10] yielded a melting point of 104 °C. Also, the concentration for half-maximal inhibition (IC50) at Human CCR3 was less than 1000 nM.

Regarding `CSCCCN1CCN(S(=O)(=O)c2cc(C#N)ccc2Sc2cc(Cl)cc(Cl)c2)CC1` [Example 17-2], the melting point worked out at 124 °C. Besides, the IC50 at Human CCR3 was less than 1000 nM.

In turn, `CN(C)CC(C)(C)CN(C)S(=O)(=O)c1cc([N+](=O)[O-])ccc1Sc1cc(Cl)cc(Cl)c1` [Example 26-3] yielded a melting point of 144 to 145 °C. The IC50 at Human CCR3 is less than 1000 nM.
